In patent US12629400B2, “Pharmaceutical compositions and methods for treating or preventing bacterial infections in humans and in animals” (LaGray, Inc., priority 2023, dated 2026):
Values after ≈ are worked out from the molar mass of the structure shown. Where two headings read alike, the source gives them in different places.

How the values were obtained:
Type in all cases: cell-based
E. faecium (VRE) = assay: Agar dilution antibacterial susceptibility (MIC); settings: Enterococcus faecium
Legionella pneumophila = assay: microbe, parasite or virus in culture
Klebsiella pneumoniae = assay: Agar dilution antibacterial susceptibility (MIC)
Enterococcus faecium = assay: Agar dilution antibacterial susceptibility (MIC)
Chlamydia pneumoniae = assay: Agar dilution antibacterial susceptibility (MIC)
Streptococcus pyogenes = assay: Agar dilution antibacterial susceptibility (MIC)
Staphylococcus aureus = assay: Agar dilution antibacterial susceptibility (MIC)
Streptococcus pneumoniae = assay: Agar dilution antibacterial susceptibility (MIC)
S. pneumoniae (DRSP) = assay: Agar dilution antibacterial susceptibility (MIC); settings: Streptococcus pneumoniae
S. aureus (MRSA) = assay: Agar dilution antibacterial susceptibility (MIC); settings: Staphylococcus aureus
Hemophilus influenzae = assay: Agar dilution antibacterial susceptibility (MIC); settings: Haemophilus influenzae
Moraxella catarrhalis = assay: Agar dilution antibacterial susceptibility (MIC)
Clostridium difficile = assay: Agar dilution antibacterial susceptibility (MIC); settings: Clostridioides difficile
[1] = E. faecium (VRE), agar dilution, read-out: MIC
[2] = S. pneumoniae (DRSP), agar dilution, read-out: MIC
[3] = S. aureus (MRSA), agar dilution, read-out: MIC
[4] = Hemophilus influenzae, agar dilution, read-out: MIC

Structure (SMILES)	MIC (E. faecium (VRE); [1]) [µg/mL]	MIC (Legionella pneumophila) [µg/mL]	MIC (Klebsiella pneumoniae; agar dilution, read-out: MIC) [µg/mL]	MIC (Enterococcus faecium; agar dilution, read-out: MIC) [µg/mL]	MIC (Chlamydia pneumoniae; agar dilution, read-out: MIC) [µg/mL]	MIC (Streptococcus pyogenes; agar dilution, read-out: MIC) [µg/mL]	MIC (Staphylococcus aureus; agar dilution, read-out: MIC) [µg/mL]	MIC (Streptococcus pneumoniae; agar dilution, read-out: MIC) [µg/mL]	MIC (S. pneumoniae (DRSP); [2]) [µg/mL]	MIC (S. aureus (MRSA); [3]) [µg/mL]	MIC (Hemophilus influenzae; [4]) [µg/mL]	MIC (Moraxella catarrhalis; agar dilution, read-out: MIC) [µg/mL]	MIC (Clostridium difficile) [µg/mL]	further results
O=C(O)c1cn(C2CC2)c2cc(N3CCNCC3)c(F)cc2c1=O [Ciprofloxacin, ciprofloxacin]	2 (≈ 6.04 µM)	0.06 (≈ 0.181 µM)	0.06 (≈ 0.181 µM)	0.5 (≈ 1.51 µM)	0.12 (≈ 0.362 µM)	0.5 (≈ 1.51 µM)	0.06 (≈ 0.181 µM)	0.13 (≈ 0.392 µM)	2 (≈ 6.04 µM)	32 (≈ 96.6 µM)	0.15 (≈ 0.453 µM)	0.25 (≈ 0.754 µM)		
CN[C@H](CC(C)C)C(=O)N[C@H]1C(=O)N[C@@H](CC(N)=O)C(=O)N[C@H]2C(=O)N[C@H]3C(=O)N[C@H](C(=O)N[C@H](C(=O)O)c4cc(O)cc(O)c4-c4cc3ccc4O)[C@H](O)c3ccc(c(Cl)c3)Oc3cc2cc(c3O[C@@H]2O[C@H](CO)[C@@H](O)[C@H](O)[C@H]2O[C@H]2C[C@](C)(N)[C@H](O)[C@H](C)O2)Oc2ccc(cc2Cl)[C@H]1O [Vancomycin, vancomycin]		0.06 (≈ 0.0414 µM)											0.5 (≈ 0.345 µM)	MIC (E. faecium (VRE); VRE): 125 µg/mL (≈ 86.3 µM); MIC (Klebsiella pneumoniae): 0.5 µg/mL (≈ 0.345 µM); MIC (Enterococcus faecium): 1 µg/mL (≈ 0.69 µM); MIC (Chlamydia pneumoniae): 0.5 µg/mL (≈ 0.345 µM); MIC (Streptococcus pyogenes): 0.06 µg/mL (≈ 0.0414 µM); MIC (Staphylococcus aureus): 0.13 µg/mL (≈ 0.0897 µM); MIC (Streptococcus pneumoniae): 0.25 µg/mL (≈ 0.173 µM); MIC (S. pneumoniae (DRSP)): 0.5 µg/mL (≈ 0.345 µM); MIC (S. aureus (MRSA); MRSA): 2 µg/mL (≈ 1.38 µM); MIC (Hemophilus influenzae): 0.06 µg/mL (≈ 0.0414 µM); MIC (Moraxella catarrhalis): 0.01 µg/mL (≈ 0.0069 µM)
CN(C)c1ccc(O)c2c1C[C@H]1C[C@H]3[C@H](N(C)C)C(O)=C(C(N)=O)C(=O)[C@@]3(O)C(O)=C1C2=O [Minocycline, minocycline]	16 (≈ 35 µM)	0.12 (≈ 0.262 µM)	0.13 (≈ 0.284 µM)	0.5 (≈ 1.09 µM)	0.5 (≈ 1.09 µM)	0.12 (≈ 0.262 µM)	0.25 (≈ 0.546 µM)	0.5 (≈ 1.09 µM)	16 (≈ 35 µM)	8 (≈ 17.5 µM)	0.25 (≈ 0.546 µM)	0.03 (≈ 0.0656 µM)	0.5 (≈ 1.09 µM)	
